Experimental data published in patent US9249102B2 (priority 2012, dated 2016).
Read-outs that look alike come from different tables or passages of the source.

Legend:
[1] = tested on: microfilaria of Dirofilaria immitis; test: Method F: microfilaria of Dirofilaria immitis, survival at 24 hours
Haemonchus contortus = test: Method A: Haemonchus contortus L1 larvae, microtitre plate screen; details: 96 h, read-out: motility inhibition
[2] = survival of microfilaria at 24 hours

Row | SMILES | EC50 [1, 2] | inhibition at 5 µg/mL (Haemonchus contortus) | EC50 [1]
1 | CC(O[C@H]1CC[C@H](Nc2ccc([N+](=O)[O-])c(C(F)(F)F)c2)CC1)C(=O)N1CCN(c2ccc3cc(Cl)ccc3n2)CC1 (some centres unmarked) [Compound 250, 1-[4-(6-chloroquinolin-2-yl)piperazin-1-yl]-2-[[4-[[4-nitro-3-(trifluoromethyl)phenyl]amino]cyclohexyl]oxy]propan-1-one] | < 1 µg/mL | ≥ 90% | 
2 | O=[N+]([O-])c1ccc(N[C@H]2CC[C@H](OCC(=S)N3CCN(c4ccc5cc(F)ccc5c4)CC3)CC2)cc1C(F)(F)F [Compound 263, 1-[4-(6-fluoro-naphthalen-2-yl)-piperazin-1-yl]-2-[4-(4-nitro-3-trifluoromethyl-henylamino)-cyclohexyloxy]-ethanethione] | < 1 µg/mL | ≥ 90% | 
3 | CC(c1cc2cc(C(F)(F)F)ccc2o1)N1CCN(C(=O)CO[C@H]2CC[C@H](N(C)c3ccc([N+](=O)[O-])c(C(F)(F)F)c3)CC2)CC1 (some centres unmarked) [Compound 257, 2-[[4-[methyl[4-nitro-3-(trifluoromethyl)phenyl]amino]cyclohexyl]oxy]-1-(4-[1-[5-(trifluoro-methyl)-1-benzofuran-2-yl]ethyl]piperazin-1-yl)ethan-1-one] | < 5 µg/mL | ≥ 90% | 
4 | O=C(NCCOc1ccc(Nc2ccc([N+](=O)[O-])c(C(F)(F)F)c2)cc1)C(=O)NCC1Cc2cc(Cl)ccc2O1 (centres unmarked) [Compound 226, N^1-((5-chloro-2,3-dihydrobenzofuran-2-yl)methyl)-N^2-(2-(4-(4-nitro-3-(trifluoromethyl)phenylamino)phenoxy)ethyl)oxalamide] | < 1 µg/mL | ≥ 90% | 
5 | O=C(CO[C@H]1CC[C@H](Nc2ccc([N+](=O)[O-])c(C(F)(F)F)c2)CC1)N1CCN(c2ccc3ccccc3c2)CC1 [Compound 14, 1-[4-(naphthalen-2-yl)piperazin-1-yl]-2-[(4-[[4-nitro-3-(trifluoromethyl)phenyl]amino]cyclohexyl)oxy]ethan-1-one] | < 1 µg/mL | ≥ 90% | 
6 | N#Cc1ccc(NC2CCN(C(=O)CCCN3CCN(c4ccc5cc(Cl)ccc5n4)CC3)CC2)cc1C(F)(F)F [Compound 96, 4-[(1-[4-[4-(6-chloroquinolin-2-yl)piperazin-1-yl]butanoyl]piperidin-4-yl)amino]-2-(trifluoromethyl)benzonitrile] | < 5 µg/mL | ≥ 90% | 
7 | N#Cc1ccc(N[C@H]2CC[C@H](OCC(=O)N3CCN(Cc4oc5ccc(C(F)(F)F)cc5c4Cl)CC3)CC2)cc1C(F)(F)F [Compound 305, 4-(4-{2-[4-(3-chloro-5-trifluoromethyl-benzofuran-2-ylmethyl)-piperazin-1-yl]-2-oxo-ethoxy}-cyclohexylamino)-2-trifluoromethyl-benzonitrile] | < 0.1 µg/mL | ≥ 90% | 
8 | O=C(CO[C@H]1CC[C@H](Nc2ccc([N+](=O)[O-])c(C(F)(F)F)c2)CC1)N1CCN(C(=O)c2cc3cc(Cl)ccc3o2)CC1 [Compound 181, 1-[4-[(5-chloro-1-benzofuran-2-yl)carbonyl]piperazin-1-yl]-2-[(4-[[4-nitro-3-(trifluoromethyl)phenyl]amino]cyclohexyl)oxy]ethan-1-one] | < 1 µg/mL | ≥ 90% | 
9 | O=C(CO[C@H]1CC[C@H](Nc2ccc([N+](=O)[O-])c(C(F)(F)F)c2)CC1)N1CCN(c2cc3cc(F)ccc3s2)CC1 [Compound 236, 1-(4-(5-fluorobenzo[b]thiophen-2-yl)piperazin-1-yl)-2-((4-((4-nitro-3-(trifluoromethyl)phenyl)amino)cyclohexyl)oxy)ethanone] | < 1 µg/mL | ≥ 90% | 
10 | Cc1cc(N2CCN(C(=O)CO[C@H]3CC[C@H](Nc4ccc([N+](=O)[O-])c(C(F)(F)F)c4)CC3)CC2)nc2ccccc12 [Compound 98, 1-[4-(4-methylquinolin-2-yl)piperazin-1-yl]-2-[(4-[[4-nitro-3-(trifluoromethyl)phenyl]amino]cyclohexyl)oxy]ethan-1-one] | < 5 µg/mL | ≥ 90% | 
11 | CC(O[C@H]1CC[C@H](Nc2ccc([N+](=O)[O-])c(C(F)(F)F)c2)CC1)C(=O)N1CCN(c2ccc3cc(F)ccc3n2)CC1 (some centres unmarked) [Compound 251, 1-[4-(6-fluoroquinolin-2-yl)piperazin-1-yl]-2-[[4-[[4-nitro-3-(trifluoromethyl)phenyl]amino]cyclohexyl]oxy]propan-1-one] | < 1 µg/mL | ≥ 90% | 
12 | O=C(COc1ccc(Nc2ccc([N+](=O)[O-])c(C(F)(F)F)c2)cc1)N1CCN(Cc2cc3cc(C(F)(F)F)ccc3o2)CC1 [Compound 188, 2-(4-[[4-nitro-3-(trifluoromethyl)phenyl]amino]phenoxy)-1-(4-[[5-(trifluoromethyl)-1-benzofuran-2-yl]methyl]piperazin-1-yl)ethan-1-one] | < 5 µg/mL | ≥ 90% | 
13 | C[C@@H]1CN(CC2Cc3cc(F)ccc3O2)[C@@H](C)CN1C(=O)CO[C@H]1CC[C@H](Nc2ccc(C#N)c(C(F)(F)F)c2)CC1 (stereo partly drawn) [Compound 308, 4-(4-{2-[(2R,5S)-4-(5-fluoro-2,3-dihydro-benzofuran-2-ylmethyl)-2,5-dimethyl-piperazin-1-yl]-2-oxo-ethoxy}-cyclohexylamino)-2-trifluoromethyl-benzonitrile] |  | ≥ 90% | < 0.1 µg/mL
14 | O=C(CO[C@H]1CC[C@H](Nc2ccc([N+](=O)[O-])c(C(F)(F)F)c2)CC1)N1CCN(c2ccnc3ccccc23)CC1 [Compound 160, 2-[(4-[[4-nitro-3-(trifluoromethyl)phenyl]amino]cyclohexyl)oxy]-1-[4-(quinolin-4-yl)piperazin-1-yl]ethan-1-one] | < 5 µg/mL |  | 
15 | CC(CN1CCN(c2cccc3ccccc23)CC1)C(=O)N1CCC(Nc2ccc([N+](=O)[O-])c(C(F)(F)F)c2)CC1 (centres unmarked) [Compound 19, 2-methyl-3-(4-naphthalen-1-yl-piperazin-1-yl)-1-[4-(4-nitro-3-trifluoromethyl-phenylamino)-piperidin-1-yl]-propan-1-one] | < 1 µg/mL |  | 
16 | O=C(NCCOc1ccc(Nc2ccc([N+](=O)[O-])c(C(F)(F)F)c2)cc1)C(=O)NCc1cc2cc(F)ccc2o1 [Compound 229, N^1-((5-fluorobenzofuran-2-yl)methyl)-N^2-(2-(4-(4-nitro-3-(trifluoromethyl)phenylamino)phenoxy)ethyl)oxalamide] | < 1 µg/mL |  | 
17 | O=C(CO[C@H]1CC[C@H](Nc2ccc([N+](=O)[O-])c(C(F)(F)F)c2)CC1)N1CCN(c2cccc3ccccc23)CC1 [Compound 20, 1-[4-(naphthalen-1-yl)piperazin-1-yl]-2-[(4-[[4-nitro-3-(trifluoromethyl)phenyl]amino]cyclohexyl)oxy]ethan-1-one] | < 1 µg/mL |  | 
18 | O=C(CO[C@H]1CC[C@H](Nc2ccc([N+](=O)[O-])c(C(F)(F)F)c2)CC1)N1CCc2ccccc2C1 [Compound 192, 2-[[4-[[4-nitro-3-(trifluoromethyl)phenyl]amino]cyclohexyl]oxy]-1-(1,2,3,4-tetrahydroisoquinolin-2-yl)ethan-1-one] | < 1 µg/mL |  | 
19 | O=C(CO[C@H]1CC[C@H](Nc2ccc([N+](=O)[O-])c(C(F)(F)F)c2)CC1)N1CCc2cc(F)ccc2C1 [Compound 193, 1-(6-fluoro-1,2,3,4-tetrahydroisoquinolin-2-yl)-2-[[4-[[4-nitro-3-(trifluoromethyl)phenyl]amino]cyclohexyl]oxy]ethan-1-one] | < 1 µg/mL |  | 
20 | O=C(NCCOc1ccc(Nc2ccc([N+](=O)[O-])c(C(F)(F)F)c2)cc1)C(=O)NCc1cc2cc(Cl)ccc2o1 [Compound 230, N^1-((5-chlorobenzofuran-2-yl)methyl)-N^2-(2-(4-(4-nitro-3-(trifluoromethyl)phenylamino)phenoxy)ethyl)oxalamide] | < 5 µg/mL |  | 
21 | N#Cc1ccc(NC2CCN(C(=O)CCCN3CCN(c4ccc5cc(C(F)(F)F)ccc5n4)CC3)CC2)cc1C(F)(F)F [Compound 95, 2-(trifluoromethyl)-4-[[1-(4-[4-[6-(trifluoromethyl)quinolin-2-yl]piperazin-1-yl]butanoyl)piperidin-4-yl]amino]benzonitrile] | < 5 µg/mL |  | 
22 | Cc1cc(N2CCN(CC(C)C(=O)N3CCC(Nc4ccc([N+](=O)[O-])c(C(F)(F)F)c4)CC3)CC2)nc2ccc(F)cc12 (centres unmarked) [Compound 102, 3-[4-(6-fluoro-4-methylquinolin-2-yl)piperazin-1-yl]-2-methyl-1-(4-[[4-nitro-3-(trifluoromethyl)phenyl]amino]piperidin-1-yl)propan-1-one] | < 1 µg/mL |  | 
23 | O=C(CO[C@H]1CC[C@H](Nc2ccc([N+](=O)[O-])c(C(F)(F)F)c2)CC1)N1CCN(c2ccc(Cl)c3ccccc23)CC1 [Compound 161, 1-[4-(4-chloronaphthalen-1-yl)piperazin-1-yl]-2-[(4-[[4-nitro-3-(trifluoromethyl)phenyl]amino]cyclohe-xyl)oxy]ethan-1-one] | < 5 µg/mL |  | 
24 | O=C(CO[C@H]1CC[C@H](Nc2ccc([N+](=O)[O-])c(C(F)(F)F)c2)CC1)Nc1ccc2cc(C(F)(F)F)ccc2n1 [Compound 210, 2-[[4-[[4-nitro-3-(trifluoromethyl)phenyl]amino]cyclohexyl]oxy]-N-[6-(trifluoromethyl)quino-lin-2-yl]acetamide] | < 1 µg/mL |  | 
25 | O=C(NCCOc1ccc(Nc2ccc([N+](=O)[O-])c(C(F)(F)F)c2)cc1)C(=O)NCc1cc2cc(C(F)(F)F)ccc2o1 [Compound 231] | < 5 µg/mL |  | 
26 | N#Cc1ccc(NC2CCN(C(=O)CCCN3CCN(c4ccc5ccccc5c4)CC3)CC2)cc1C(F)(F)F [Compound 15, 4-[(1-[4-[4-(naphthalen-2-yl)piperazin-1-yl]butanoyl]piperidin-4-yl)amino]-2-(trifluoromethyl)benzonitrile] | < 5 µg/mL |  | 
27 | CN(C(=O)C(=O)NCCO[C@H]1CC[C@H](Nc2ccc([N+](=O)[O-])c(C(F)(F)F)c2)CC1)c1ccc2cc(F)ccc2n1 [Compound 242] | < 1 µg/mL |  | 
28 | O=C(CO[C@H]1CC[C@H](Nc2ccc([N+](=O)[O-])c(C(F)(F)F)c2)CC1)N1CCc2cc(Cl)ccc2C1 [Compound 195, 1-(6-chloro-1,2,3,4-tetrahydroisoquinolin-2-yl)-2-[[4-[[4-nitro-3-(trifluoromethyl)phenyl]amino]cyclohexyl]oxy]ethan-1-one] |  |  | < 1 µg/mL
